{"source": "patent US11896593B2", "about": "“Sulfamate derivative compounds for use in treating or alleviating a psychiatric disorder” (Bio-Pharm Solutions Co., Ltd., priority 2020, dated 2024)", "key": {"[1]": {"tested_on": "ICR male mice", "assay": "Forced swim test (mouse, mFST)", "assay_type": "in vivo", "details": "for Immobile posture time (sec.)/4 minutes, Treatment: mouse, administered orally 60 minutes before testing", "experimental": "In order to determine the anti-depressant effect in rodents, the forced swim test was performed with rats and mice. The forced swim test causes an immobile state by forcing an animal to swim in a confined space. It reflects a state of despair giving up evading such a circumstance. ICR male mice (25 g to 30 g) and Wistar male rats (240 g to 260 g) were purchased from Samtako Bio Korea Co. (Korea) and allowed to acclimatize for 1 week before being tested in a controlled animal facility (temperature 22±2° C., humidity 55±5%). The test compound was dissolved in 20% Tween80 and administered orally 60 minutes before testing. The control group was provided with a corresponding vehicle. […] 15 minutes of forced swimming was performed a day before the experiment. On the day of the experiment, the animal was placed in the cylinder 60 minutes after the administration of the compound and was videotaped for 6 minutes. In the recorded videos, time during which the animal placed its head on the water and remained still without movement was measured based on the remaining 4 minutes excluding the first 2 minutes. It was evaluated that the lower the value of the immobile posture time, the greater the anti-depressant action (Reference; Porsolt R D, Le Pichon M. Jalfre M. 1997. Depression: a new animal model sensitive to antidepressant treatments. Nature. April 21; 266(5604):730-2.).\nThe result was shown as the standard error of measurement (SEM) of mean value t mean value. Behavioral data were analyzed by one-way ANOVA. For statistical significance, a value of <0.05 was taken (***p<0.001, **p=0.001˜0.01, *p=0.01˜0.05). Data management and statistics were performed using the Prism software of Windows version 4 (GraphPad Softward Co., San Diego, CA, USA).\nBased on the results of Table 7, the ED50 value of the compound of Example 2 was calculated and shown in Table 7, and after 30 mg/kg and 60 mg/kg of the compounds of the other remaining examples were administered based on TD50 values to perform the forced swim tests, respectively, the administration doses with protected efficacy and protection % at the corresponding administration doses were shown in Table 7."}, "[2]": {"tested_on": "ICR male mice", "assay": "Light dark choice test", "assay_type": "in vivo", "details": "mouse, 60 minutes before testing", "experimental": "The light-dark choice test is a model for anxiety-like behavior. This test is based on innate aversion of rodents to brightly lit areas and their voluntary exploration behaviors for light stress factors, that is, new environments and light. ICR male mice (30 g to 35 g) were purchased from Orient Bio Korea Co. (Korea) and allowed to acclimatize for 1 week before being tested in a controlled animal facility (temperature 22±2° C., humidity 55±5%). When treatment began, the weight of the animals was 35±5% g. The test compound for oral administration was dissolved in 30% PEG400 and administered at a dose per body weight of 10 mL/kg 60 minutes before testing. The test compound for intraperitoneal administration was dissolved in 20% Tween80 and administered at a dose per body weight of 10 mL/kg 60 minutes before testing. The control group was provided with a corresponding vehicle. An acryl box (45 cm×27 cm×27 cm) was composed of 2 chambers (white color: ⅔ of the box, black color: ⅓ of the box) connected by an opening (7.5 cm×7.5 cm) located at the bottom surface of the center of a partition wall. Each mouse was placed in the white part of the box and allowed to roam freely for a 5-minute session. At the end of the session, mice were returned to their habitat cage, and the experimental box was cleanly wiped with a 70% alcohol solution. All experiments were videotaped. After testing, all video recordings were analyzed. The obtained results are shown in Table 5 below (Reference; Bourin, M., Hascoet, M. 2003. The mouse light/dark box test. European Journal of Pharmacology, 463, 55-65. Bouwknecht, J A., Paylor, R. 2002. Behavioral and physiological mouse assays for anxiety: a survey in nine mouse strains. Behavioural Brain Research, 136, 489-501.)."}}, "note": "Marks after values point to notes of the source that are not given here.", "data": [{"molecule": "CC1(C)O[C@@H](COS(N)(=O)=O)[C@H](c2ccccc2Cl)O1", "note": "[Example 2, ((4S,5S)-5-(2-chlorophenyl)-2,2-dimethyl-1,3-dioxolan-4-yl)methyl sulfamate]", "values": [{"measurement": "ED50", "setting": "[1]; mouse forced swim test, po", "result": 23.5, "unit": "mg/kg"}, {"measurement": "Immobile posture time (sec.)/4 minutes, Treatment", "setting": "[1]; 10 mg/kg", "result": "105.7 ± 6.9** sec./4 minutes"}, {"measurement": "Immobile posture time (sec.)/4 minutes, Treatment", "setting": "[1]; 20 mg/kg", "result": "80.5 ± 8.6** sec./4 minutes"}, {"measurement": "Immobile posture time (sec.)/4 minutes, Treatment", "setting": "[1]; 40 mg/kg", "result": "61.2 ± 20.1** sec./4 minutes"}, {"measurement": "White box duration time (sec.)/5 minutes, Treatment", "setting": "[2]; intraperitoneal, 10 mg/kg", "result": "189.0 ± 10.8", "unit": "sec./5 minutes"}, {"measurement": "White box duration time (sec.)/5 minutes, Treatment", "setting": "[2]; intraperitoneal, 30 mg/kg", "result": "208.1 ± 13.2", "unit": "sec./5 minutes"}, {"measurement": "White box duration time (sec.)/5 minutes, Treatment", "setting": "[2]; intraperitoneal, 40 mg/kg", "result": "219.2 ± 13.3", "unit": "sec./5 minutes"}, {"measurement": "White box duration time (sec.)/5 minutes, Treatment", "setting": "[2]; oral, 10 mg/kg", "result": "136.4 ± 4.2", "unit": "sec./5 minutes"}, {"measurement": "White box duration time (sec.)/5 minutes, Treatment", "setting": "[2]; oral, 30 mg/kg", "result": "140.0 ± 12.3", "unit": "sec./5 minutes"}, {"measurement": "White box duration time (sec.)/5 minutes, Treatment", "setting": "[2]; oral, 40 mg/kg", "result": "193.1 ± 8.7", "unit": "sec./5 minutes"}]}]}
